Results published in patent US5260271A, “Nisin compositions for use as enhanced broad range bactericides” (Applied Microbiology, Inc., priority 1992, dated 1993).
Where no end group is shown, it is not given here.

Columns and labels:
[1] = tested on: E. coli; experiment: Bactericidal activity, percent bacterial survival of E. coli suspension; format: cell-based, Escherichia coli; conditions: EDTA 0 mM, Triton X-100 0%, 20 mM Tris pH 8.0
Protocol: (§1) All tests in the following examples were performed at 37° C. The efficacy of the enhanced broad range bactericides was determined by assaying bactericidal activity as measured by the percent bacterial survival after treatment with the bactericide. Generally, after incubation of a 10^7 cell per ml suspension of target species with the novel bactericide for specified lengths of time, bacteria were collected by centrifugation for 2 minutes. […] Surviving bacteria were determined by scoring colony forming units (CFU) after incubation for 24-48 hours at 37° C.
The effects of the bactericide were measured as a function of percentage bacteria survival after 2 hours.
Incubations were performed in 20 mM Tris, […] at 37° C.

[2] = tested on: Staphylococcus aureus; experiment: Bactericidal activity towards Staphylococcus aureus, percent survival; format: cell-based; conditions: S. aureus, EDTA 0 mM
Protocol: (§2) All tests in the following examples were performed at 37° C. The efficacy of the enhanced broad range bactericides was determined by assaying bactericidal activity as measured by the percent bacterial survival after treatment with the bactericide. Generally, after incubation of a 10^7 cell per ml suspension of target species with the novel bactericide for specified lengths of time, bacteria were collected by centrifugation for 2 minutes. […] Surviving bacteria were determined by scoring colony forming units (CFU) after incubation for 24-48 hours at 37° C. An effective bactericide according to this invention is one which allows less than 0.1% of the initial viable count of the bacteria to survive.
Incubations were performed in 50 mM sodium acetate buffer, pH 5.0 or 20 m
TrisHCl buffer, pH 8.0 at 37° C.

[3] = tested on: S. typhimurium on chicken muscle; experiment: Bactericidal activity towards S. typhimurium on chicken muscle (unadhered cells); format: cell-based, Salmonella typhimurium; conditions: chicken muscle, EDTA 0 mM
Protocol: Incubations were performed in either 50 mM sodium acetate, pH 5.0, or 20 mM Tris, pH 8.0 at 37° C.
Cubes of chicken muscle were cleansed with sodium hypochlorite and povidone iodine prior to use. To inoculate the tissue, the cubes of chicken muscle were dipped into a 10^8 cells/ml suspension of S. typhimurium in 20 mM Tris HCl, pH 8.0. Excess moisture was removed from dipped cubes by tapping. The chicken samples were placed into sufficient buffer containing the nisin composition to cover the tissue and incubated for 2 hours at 37° C. after which the tissue was removed to sufficient Phage buffer to cover the tissue. The bacteria remaining in the test solution were collected by centrifugation, washed with Phage buffer, and combined with bacteria washed from the tissue by Phage buffer. The combined samples (termed "unadhered" cells) were serially diluted and 100 μl aliquots were plated for determination of surviving bacteria.
(§3) Cubes of chicken muscle were cleansed with sodium hypochlorite and povidone iodine prior to use. To inoculate the tissue, the cubes of chicken muscle were dipped into a 10^8 cells/ml suspension of S. typhimurium in 20 mM Tris HCl, pH 8.0. Excess moisture was removed from dipped cubes by tapping. The tissue was placed into sufficient buffer containing the nisin compositions to cover the tissue, and incubated for 2 hours at 37° C. after which the tissue was removed to sufficient Phage buffer to cover the tissue. The bacteria remaining in the test solution were collected by centrifugation, washed with Phage buffer, and combined with bacteria washed from the tissue by Phage buffer. The combined samples (termed "unadhered" cells) were serially diluted and 100 μl aliquots were plated for determination of surviving bacteria.
as §3, with “cleaned” for “cleansed”, “50” for “20”, “sodium acetate buffer,” for “Tris HCl,”, “5.0.” for “8.0.”, “containing” for “containing the”

[4] = tested on: S. typhimurium; experiment: Bactericidal activity, percent bacterial survival of S. typhimurium suspension; format: cell-based, Salmonella typhimurium; conditions: for Percentage S. typhimurium Survival at 3 hours / % Survival at 2 hours: EDTA 0 mM
Protocol: as §1
The control (Test #1) is identical to the control of Example 1 (Table 1).

[5] = tested on: Coryneform bacteria; experiment: Bactericidal activity towards Coryneform bacteria; format: cell-based; conditions: pH 8.0, Nisin 3 μg/ml, EDTA 0 mM
Protocol: as §2
(§4) Incubations were performed in 20 mM TrisHCl, pH 8.0 at 37° C.

[6] = tested on: K. pneumoniae; experiment: Bactericidal activity, percent bacterial survival of K. pneumoniae suspension; format: cell-based, Klebsiella pneumoniae; conditions: EDTA 0 mM, 20 mM Tris pH 8.0
Protocol: as §1
The effect was measured as a function of percentage bacterial survival after 2 hours.

[7] = tested on: Listeria monocytogenes; experiment: Bactericidal activity towards Listeria monocytogenes in milk; format: cell-based; conditions: L. monocytogenes in milk at 37° C.; Nisin 100 μg/ml, Monooleate 0%
Protocol: as §2
An example of where the application of nisin is limited by its available activity is illustrated by the data in Table 15B.
(§5) Incubations were in milk at 37° C.

[8] = tested on: Streptococcus agalactiae; experiment: Bactericidal activity towards Streptococcus agalactiae in milk; format: cell-based; conditions: for % survival at 2h: S. agalactiae in milk at 37° C., Monolaurin 0%
Protocol: as §2
However, the combination of the two agents, 0.1% monolaurin and nisin 0.2 μg/ml, is extremely potent towards S. agalactiae. […] Thus, when the application of nisin is limited by its available activity, a bactericide comprising nisin with a surfactant can be expected to be more useful.
as §5

[9] = tested on: Streptococcus mutans; experiment: Rapid bactericidal activity towards Streptococcus mutans in the presence of divalent cation, 10% Fetal Calf Serum; format: cell-based; conditions: S. mutans, Nisin 3, no EDTA, 0 mM
Protocol: (§6) All tests in the following examples were performed at 37° C. The efficacy of the enhanced broad range bactericides was determined by assaying bactericidal activity as measured by the percent bacterial survival after treatment with the bactericide. Generally, after incubation of a 10^7 cell per ml suspension of target species with the novel bactericide for specified lengths of time, bacteria were collected by centrifugation for 2 minutes. The bacterial pellet was washed free of the bactericide with a rescue buffer, termed herein Phage buffer (50mM Tris-HCl buffer pH 7.8, 1 mM MgSO4, 4 mM CaCl2, 0.1 M Nacl, and 0.1% gelatin), resuspended and serially diluted into Phage buffer, and 100 μl of the suspended bacteria were spread on nutrient agar plates. Surviving bacteria were determined by scoring colony forming units (CFU) after incubation for 24-48 hours at 37° C.
Incubations performed in 10% Fetal Calf Serum at 37° C.

[10] = tested on: Listeria monocytogenes; experiment: Bactericidal activity towards Listeria monocytogenes in Tris buffer; format: cell-based; conditions: L. monocytogenes; pH 8.0, Nisin 3.0 μg/ml, EDTA 0 mM
Protocol: as §2, §4

[11] = tested on: Streptococcus mutans; experiment: Bactericidal activity and kinetics towards Streptococcus mutans in Tris buffer; format: cell-based; conditions: S. mutans; pH 8.0, Nisin 0.1 μg/ml, EDTA 0 mM
Protocol: as §6
The suspensions were incubated for various times ranging from 0.5 to 60 minutes with the bactericides.
Incubations were performed in 20 mM TrisHCl, pH 7.3 at 37° C.

Nisin (ITSISLCTPGCKTGALMGCNMKTATCHCSIHVSK; not fully specified (residues 2, 5, 33, bridges); cysteine pairing not given here; UniProt P13068 24-57, looked up) [polypeptide bacteriocin with antimicrobial properties produced by strains of Streptococcus lactis; known food preservative]
Percentage E. coli Survival at 2 hours ([1]; Nisin 30 μg/ml): 27% | Percentage E. coli Survival at 2 hours ([1]; Nisin 100 μg/ml): 25% | Percentage E. coli Survival at 2 hours ([1]; Nisin 300 μg/ml): 8.5% | % Survival 2 hr ([2]; pH 5.0, Nisin 3.0 μg/ml): 0.6% | % Survival 2 hr ([2]; pH 8.0, Nisin 3.0 μg/ml): 7.4% | % Survival at 2 hours (Unadhered cells) ([3]; pH 5.0, Nisin 300 μg/ml): 0.1% | % Survival at 2 hours (Unadhered cells) ([3]; pH 8.0, Nisin 300 μg/ml, 1% Bovine serum albumin): 0.02% | % Survival at 2 hours (Unadhered cells) ([3]; pH 8.0, Nisin 300 μg/ml): 7.5% | Percentage S. typhimurium Survival at 3 hours ([4]; Nisin 50 µg/ml, 20 mM Tris pH 8.0, 37° C): 7.0% | Percentage S. typhimurium Survival at 3 hours ([4]; Nisin 100 µg/ml, 20 mM Tris pH 8.0, 37° C): 1.6% | Percentage S. typhimurium Survival at 3 hours ([4]; Nisin […], 20 mM Tris pH 8.0, 37° C): 51.3% | survival ([4]; S. typhimurium, 100 μg/ml nisin in the absence of EDTA, 20 mM Tris pH 8.0): 1.6% | % Survival at 2 hours ([4]; S. typhimurium, pH 5.0, Nisin 100 μg/ml): 0.6% | % Survival at 2 hours ([4]; S. typhimurium, pH 8.0, Nisin 100 μg/ml): 4% | Percentage S. typhimurium Survival at 3 hours ([4]; Table 2: Nisin 10 μg/ml, Triton X-100 0%, 20 mM Tris pH 8.0): 51.3% | Percentage S. typhimurium Survival at 3 hours ([4]; Table 2: Nisin 50 μg/ml, Triton X-100 0%, 20 mM Tris pH 8.0): 7.0% | Percentage S. typhimurium Survival at 3 hours ([4]; Table 2: Nisin 100 μg/ml, Triton X-100 0%, 20 mM Tris pH 8.0): 1.6% | Percentage S. typhimurium Survival at 3 hours ([4]; Table 3: Nisin 10 μg/ml, Tween20 0%, 20 mM Tris pH 8.0): 51.3% | Percentage S. typhimurium Survival at 3 hours ([4]; Table 3: Nisin 50 μg/ml, Tween20 0%, 20 mM Tris pH 8.0): 7.0% | Percentage S. typhimurium Survival at 3 hours ([4]; Table 3: Nisin 100 μg/ml, Tween20 0%, 20 mM Tris pH 8.0): 1.6% | % Survival at 2 hours ([4]; Table 8, S. typhimurium, Nisin 100 μg/ml, BSA 0%, Tris buffer): 1.6% | % Survival 2 hr [5]: 0.22% | % Survival at 2 hours ([6]; Nisin 100 μg/ml): 50% | % Survival at 2 hours ([6]; Nisin 300 μg/ml): 38% | % Survival 2 hr [7]: 0.56% | % survival at 2h ([8]; Nisin 0.02 μg/ml): 100% | % survival at 2h ([8]; Nisin 0.2 μg/ml): 2.2% | bactericidal activity towards Streptococcus agalactiae ([8]; nisin at concentrations up to 0.2 μg/ml, in milk): does not exhibit significant bactericidal activity | % survival at 1 min. [9]: 2.9% | % Survival after 2 hr [10]: 0.71% | % Survival after 2 hr [11]: 4.3%
